Experimental data reported in publication PMC10820861, “Furofuranoid-Type Lignans and Related Phenolics from Anisacanthus virgularis (Salisb.) Nees with Promising Anticholinesterase and Anti-Ageing Properties: A Study Supported by Molecular Modelling” (Plants, 2024).
Where “and” joins values, the source holds several entries; their conditions need not be identical. Equal values may be shown once. Read-outs that look alike come from different tables or passages of the source.

Key:
[1] = system: TERT; assay: TERT enzyme (telomerase activation) assay in normal melanocyte HFB4 cells; format: cell-based, human; conditions: 1 μM; for TERT Concentration Mean ± SD / Relative Increase (TERT vs untreated HFB4 control): 24 h; for Relative Increase (TERT vs untreated HFB4 control): control = 1
Experimental: In the present study, we assessed the in vitro anti-ageing activity of the lignan-type compounds 1–5 utilizing a TERT enzyme assay (Table 3). The normal melanocyte cell line (HFB4) was used as a model system in this study, and curcumin (1 μM) was used as a standard telomerase activator [47]. According to the report, curcumin has made it possible for model organisms to live longer, reduced the signs of ageing, and slowed the onset of age-related illnesses where cellular senescence is a direct cause.
TERT activity assay was used for in vitro investigation of the compound’s anti-ageing properties. The HFB4 (VACSERA, Giza, Egypt) was used as a model system for the study of amplification of telomers in response to our test compounds and curcumin. HFB4 cells were cultivated in RPMI-1640 medium enriched with heat-inactivated FBS (10%) and penicillin–streptomycin (100 U/mL). HFB4 cells (2 × 10^5) were plated and incubated in a 5% CO2 humidified atmosphere at 37 °C for 24 h. The cells were then left untreated (negative control), treated with tested compounds and with 1 μM curcumin, a standard activator for TERT. The supernatant from the various conditions was collected after 24 h, centrifuged for 20 min at 1000× g at 4 ℃, and immediately submitted for the assay as previously described. The different supernatants were added separately to a microtiter plate pre-coated with a TERT-specific antibody (Ab) and then incubated with a TERT-specific biotin detection Ab. Then, streptavidin/horseradish peroxidase (SABC) conjugate was added to all wells and incubated. […] The optical density (OD) was measured spectrophotometrically at 450 nm. The TERT concentration was determined by comparing the OD of the samples with the standard curve prepared according to the instructions of the manufacturer. The relative OD450 = (OD450 of the reaction well) − (OD450 of no treatment well). The standard curve was plotted by drawing the relative OD450 of each standard solution (Y) versus the respective concentration of the standard solution (X). The human TERT concentration of the samples was interpolated from the standard curve.

[2] = target: T1, AChE (Electrophorus electricus, UniProt O42275); assay: biochemical; conditions: for IC50 / % Inhibition of AChE: mean ± SD; for inhibition at 0.01 µM / inhibition at 0.1 µM / inhibition at 1 µM / inhibition at 10 µM: read-out: % Inhibition of AChE
T1 construct: purchased
T1 sequence (O42275 24-633): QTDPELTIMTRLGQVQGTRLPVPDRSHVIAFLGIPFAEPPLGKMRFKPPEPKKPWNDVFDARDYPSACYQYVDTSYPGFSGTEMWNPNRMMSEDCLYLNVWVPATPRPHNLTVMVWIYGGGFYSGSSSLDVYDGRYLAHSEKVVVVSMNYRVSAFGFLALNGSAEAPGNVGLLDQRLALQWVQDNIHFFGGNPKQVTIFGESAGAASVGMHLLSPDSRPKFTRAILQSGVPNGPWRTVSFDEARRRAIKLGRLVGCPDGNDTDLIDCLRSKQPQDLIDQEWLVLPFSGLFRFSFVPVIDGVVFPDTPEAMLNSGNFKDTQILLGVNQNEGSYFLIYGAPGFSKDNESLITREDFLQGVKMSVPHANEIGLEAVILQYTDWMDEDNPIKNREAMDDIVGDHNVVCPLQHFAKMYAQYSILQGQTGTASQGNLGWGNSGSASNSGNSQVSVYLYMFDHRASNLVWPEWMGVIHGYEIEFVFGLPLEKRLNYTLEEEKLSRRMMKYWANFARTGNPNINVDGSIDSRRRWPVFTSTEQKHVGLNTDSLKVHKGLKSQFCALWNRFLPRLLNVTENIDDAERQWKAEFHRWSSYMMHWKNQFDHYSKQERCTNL
Experimental: The preparation of the sample was the same as has been previously described. The AChE-inhibitory effect of the furofuranoid lignans 1–5 was determined using an AChE inhibitor screening kit (the Quanti-Chrome assay kit). […] The 96-well plate reaction was prepared according to the manufacturer’s protocol.

[3] = system: memory decline; conditions: 25 mg/kg, p.o.; dose-dependent; cited from earlier work
[4] = system: hippocampal long-term potentiation; design: method as in PMID 30685474; conditions: 50 μM; cited from earlier work
[5] = system: acetylcholinesterase; conditions: concentration-dependent; cited from earlier work
[6] = system: neuro2a cells; design: method as in PMID 30685474; conditions: cited from earlier work
[7] = system: butyrylcholinesterase enzyme; design: method as in doi:10.25135/rnp.71.17.04.074; conditions: 250 µg/mL; cited from earlier work
[8] = system: AChE enzyme; design: method as in doi:10.25135/rnp.71.17.04.074; conditions: 250 µg/mL; cited from earlier work
[9] = read-out: IC50 (AChE inhibition)

With COc1cc([C@H]2OC[C@H]3[C@@H]2CO[C@@H]3c2ccc(O)c(OC)c2)ccc1O (relative stereo) [Compound 2, pinoresinol] the “increase in telomerase activity compared to untreated cells” value (from here on “increase in telomerase activity”) [1] was “a little weak”, the “TERT Concentration Mean ± SD” value [1] was 2.2 ± 0.03 ng/mL and the “Relative Increase (TERT vs untreated HFB4 control)” value (“Relative Increase” for short) [1] was 1.28. It also gave an IC50 ([2]; IC50 (AChE inhibition)) of 0.292 ± 0.009 µM, an inhibition at 0.01 µM [2] of 26 ± 1% and an inhibition at 0.1 µM [2] of 41 ± 1%. For the same molecule, the inhibition at 1 µM [2] was 60 ± 3%, the inhibition at 10 µM [2] was 75 ± 2% and the “effect on memory decline in dementia model” value [3] was “improved memory decline”. For the same molecule, the “effect on induction of hippocampal long-term potentiation” value [4] was “aided the induction of hippocampal long-term potentiation”, the “effect on acetylcholinesterase activity” value [5] was “inhibited the activity of acetylcholinesterase in a concentration-dependent manner” and the “effect on calcium influx” value [6] was “aided calcium influx into neuro2a cells”.
For COc1cc([C@H]2OC[C@H]3[C@@H]2CO[C@H]3c2ccc(O)c(OC)c2)ccc1O (relative stereo) [Compound 3, epipinoresinol], the “increase in telomerase activity” value [1] was “a little weak”, the “TERT Concentration Mean ± SD” value [1] was 2.0 ± 0.06 ng/mL and the “Relative Increase” value [1] was 1.18. For the same molecule, the IC50 ([2]; IC50 (AChE inhibition)) was 0.242 ± 0.009 µM, the inhibition at 0.01 µM [2] was 23 ± 1% and the inhibition at 0.1 µM [2] was 44 ± 1%. The inhibition at 1 µM [2] was 60 ± 2% and the inhibition at 10 µM [2] was 82 ± 3%.
In the case of COc1cc([C@H]2OC[C@H]3[C@@H]2CO[C@@H]3c2cc(OC)c3c(c2)[C@H](CO)[C@@H](c2ccc(O[C@@H]4O[C@H](CO)[C@@H](O)[C@H](O)[C@H]4O)c(OC)c2)O3)ccc1O [Compound 1, anisacanthin], the “increase in telomerase activity” value [1] is reported as 1.64 fold, the “TERT Concentration Mean ± SD” value [1] is reported as 2.8 ± 0.04 ng/mL and the “Relative Increase” value [1] is reported as 1.64. For the same molecule, the IC50 [2, 9] was 0.085 µM, the inhibition at 0.01 µM [2] was 24 ± 1% and the inhibition at 0.1 µM [2] was 61 ± 1%. The inhibition at 1 µM [2] was 75 ± 2% and the inhibition at 10 µM [2] was 83 ± 2%.
With COc1cc([C@H]2OC[C@H]3[C@@H]2CO[C@@H]3c2ccc(O[C@@H]3O[C@H](CO)[C@@H](O)[C@H](O)[C@H]3O)c(OC)c2)ccc1O [Compound 5, pinoresinol 4-O-β-D-glucoside] the “increase in telomerase activity” value [1] was 1.66 fold, the “TERT Concentration Mean ± SD” value [1] was 2.8 ± 0.09 ng/mL and the “Relative Increase” value [1] was 1.66. For the same molecule, the IC50 [2, 9] was 0.0645 µM and 0.064 µM, the inhibition at 0.01 µM [2] was 28 ± 3% and the inhibition at 0.1 µM [2] was 59 ± 4%. The inhibition at 1 µM [2] was 79 ± 1%, the inhibition at 10 µM [2] was 88 ± 3% and the “inhibitory effect on the butyrylcholinesterase enzyme” value [7] was 11.02 ± 0.35%. For the same molecule, the “inhibitory effect on the AChE enzyme” value [8] was 20.17 ± 0.44%.
With COc1cc(/C=C/C(=O)CC(=O)/C=C/c2ccc(O)c(OC)c2)ccc1O [Curcumin, curcumin, reference compound] the “increase in telomerase activity” value [1] was 1.62 fold, the “TERT Concentration Mean ± SD” value [1] was 2.8 ± 0.03 ng/mL and the “Relative Increase” value [1] was 1.62.
In the case of phillyrin [Compound 4], the “increase in telomerase activity” value [1] is reported as 1.72 fold and 1.71 fold, the “TERT Concentration Mean ± SD” value [1] is reported as 2.9 ± 0.06 ng/mL and the “Relative Increase” value [1] is reported as 1.72. For the same molecule, the “% Inhibition of AChE” value ([2]; 0.01 µM) was 26 ± 3%, the “% Inhibition of AChE” value ([2]; 0.1 µM) was 41 ± 2% and the “% Inhibition of AChE” value ([2]; 1 µM) was 64 ± 2%. For the same molecule, the “% Inhibition of AChE” value ([2]; 10 µM) was 73 ± 2%.
